{"source": "patent US6482654B1", "about": "“Method of detecting shikimic acid” (Syngenta Limited, priority 2000, dated 2002)", "test_system": "plants", "experiment": "Shikimic acid/shikimate accumulation in glyphosate-treated plants, periodate/sulfite chromophore assay", "assay_type": "in vivo", "conditions": "plants treated with a lethal amount of glyphosate; 5-10 μL of extract of about 150 mg leaf tissue in 8-fold (w/v) 0.25N hydrochloric acid; 1 ml final solution; control about 0.1 AU", "description": "In the performance of the methods of the invention, for detection of the chromophore, it is preferable to have an absorbance of at least 0.05 absorbance units (AU) for the untreated control plant test sample and an absorbance of less than 2.0 AU for the test sample with the greatest amount of shikimic acid/shikimate in order to obtain optimal results from spectrophotometric measurement of the chromophore. […] After reaction with the periodate reagent and quenching by 0.5 ml of a mixture comprising sulfite and sodium hydroxide, there was 1 ml of solution with an absorbance of about 1.8 AU, while an untreated control plant gave an absorbance of about 0.1 AU."}
{"compound": "O=C(O)CNCP(=O)(O)O", "note": "[glyphosate, N-(phosphonomethyl) glycine]", "values": [{"measurement": "absorbance of the chromophore (shikimic acid/shikimate accumulated)", "result": "about 1.8 AU"}]}
